Experimental data as given in patent EP4772507A1, “AZAINDOLE COMPOUND AND MEDICAL DRUG” (Nippon Shinyaku Co., Ltd., priority 2023, dated 2025).

How the values were obtained:
[1] = test system: OCI-Ly3 cell lines; test: Proliferation inhibition test, ABC-DLBCL cell line OCI-Ly3; format: cell-based; settings: Homo sapiens; OCI-Ly3 (ABC-DLBCL, NF-κB pathway-dependent); 96 hours; Cell Counting Kit-8; read-out: Proliferation inhibitory activity against OCI-Ly3 IC50
Method: (§1) In ABC-DLBCL cell lines, the NF-κB pathway is constitutively activated due to mutations in the B-cell receptor pathway. To evaluate the proliferation inhibitory activity associated with the MALT1 inhibitory activity of the test substance, a proliferation inhibition test was conducted using ABC-DLBCL cell lines.
(§2) The test substance was prepared at a concentration of 10 mM in dimethyl sulfoxide (DMSO) and further diluted with DMSO to each of concentrations of 3,000, 1,000, 300, 100, 30, and 10 µM. The solutions were further diluted 100-fold with IMDM medium containing 10% FBS to prepare test substance solutions.
(§3) OCI-Ly3 cell lines (ABC-DLBCL, NF-κB pathway-dependent) were cultured in IMDM containing 10% FBS, and SU-DHL-4 cell lines (GCB-DLBCL, NF-κB pathway-independent, used as a negative control) were cultured in RPMI-1640 containing 10% FBS. Into a 96-well plate, 2,000 cells of the OCI-Ly3 cell line and 4,000 cells of the SU-DHL-4 cell line were seeded in 100 µL per well, and 11 µL of the adjusted test substance solution was added thereto (final concentrations: 10,000, 3,000, 1,000, 300, 100, 30, and 10 nM). After 96 hours of incubation at 37°C in a 5% CO2 incubator, 10 µL of Cell Counting Kit-8 (Dojindo Laboratories) was added to each well. After 4 hours of incubation at 37°C, absorbance at 450 nm was detected using a microplate reader (EnVision, PerkinElmer).
(§4) Using the measurement data, non-linear regression analysis based on a 2-parameter logistic model was performed with Spotfire (PerkinElmer) to estimate IC50 values.

[2] = molecular target: T1, C-terminal catalytic domain of MALT1 (amino acid residues 329-824) (Homo sapiens, UniProt Q9UDY8); test: MALT1 protease inhibitory activity (enzyme activity inhibition assay, fluorogenic substrate); format: biochemical; settings: substrate Ac-Leu-Arg-Ser-Arg-AMC 50 µM; 30°C for 2 hours; fluorescence
T1 construct: C-terminal catalytic domain of MALT1 (amino acid residues 329-824)
T1 sequence (Q9UDY8 329-824): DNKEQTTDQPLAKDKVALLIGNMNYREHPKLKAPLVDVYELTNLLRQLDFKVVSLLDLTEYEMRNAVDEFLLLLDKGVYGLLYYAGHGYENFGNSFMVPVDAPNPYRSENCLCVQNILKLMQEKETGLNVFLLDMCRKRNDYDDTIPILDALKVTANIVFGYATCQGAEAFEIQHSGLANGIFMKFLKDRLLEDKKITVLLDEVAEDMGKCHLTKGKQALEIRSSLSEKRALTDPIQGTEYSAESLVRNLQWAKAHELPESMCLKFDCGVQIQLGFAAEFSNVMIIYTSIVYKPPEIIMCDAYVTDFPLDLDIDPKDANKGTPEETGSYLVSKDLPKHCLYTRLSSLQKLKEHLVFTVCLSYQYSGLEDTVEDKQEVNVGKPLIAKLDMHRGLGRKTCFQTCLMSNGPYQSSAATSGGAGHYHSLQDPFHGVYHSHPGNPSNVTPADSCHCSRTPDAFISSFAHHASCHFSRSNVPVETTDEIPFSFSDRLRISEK
Method: To evaluate the enzyme inhibitory activity of a test substance against MALT1, an enzyme activity inhibition assay was conducted using the C-terminal catalytic domain of MALT1 (amino acid residues 329-824).
A test substance was prepared at a concentration of 10 mM in dimethyl sulfoxide (DMSO) and further diluted with DMSO to obtain final concentrations of 1000, 100, 10, 1, and 0.1 µM. The solutions were further diluted 25-fold with an assay buffer to prepare final test substance solutions. The composition of the assay buffer was 200 mM Tris/HCl HEPES (pH 7.5), 0.8 M Na citrate, 100 µM DTT, and 0.05% CHAPS.
The test substance solution was added to a 384-well black plate (#6007270, PerkinElmer) in an amount of 5 µL per well (n = 2; final concentrations of 10000, 1000, 100, 10, 1, and 0.1 nM), followed by the addition of 10 µL of MALT1 enzyme and finally 5 µL of a substrate solution (Ac-Leu-Arg-Ser-Arg-AMC, Peptide Institute, Inc.; final concentration in the reaction mixture: 50 µM), and after stirring, the mixture was allowed to react at 30°C for 2 hours. Fluorescence (excitation: 380 nm, emission: 460 nm) was detected using a microplate reader (EnVision, PerkinElmer).
Using the measurement data, non-linear regression analysis based on a 2-parameter logistic model was performed with Spotfire (PerkinElmer) to calculate IC50.

[3] = test system: HEK293/API2-MALT1/NF-κB reporter cells; test: Inhibition of reporter activity in HEK293/API2-MALT1/NF-κB reporter cells; format: cell-based; settings: Homo sapiens, 24 hours with test substance, One-glo luminescence
Method: The API2-MALT1 fusion protein, expressed in MALT lymphoma, is known to constitutively activate the NF-κB pathway. To evaluate the inhibitory effect of the test substance on the NF-κB pathway in cells, a reporter activity inhibition test was conducted using HEK293/API2-MALT1/NF-κB reporter cells.
The test substance was prepared at a concentration of 10 mM in dimethyl sulfoxide (DMSO) and further diluted with DMSO to each of concentrations of 1000, 300, 100, and 10 µM. The solutions were further diluted 100-fold with DMEM medium containing 10% FBS to prepare test substance solutions.
HEK293/API2-MALT1/NF-κB reporter cells and 293T/CMV reporter cells (used as a negative control) were cultured in DMEM medium containing 10% FBS. Into a 384-well plate (#781080, Greiner), 6,000 cells were seeded in 30 µL per well, and after culturing for 24 hours, 3.3 µL of the adjusted test substance solution was added thereto (final concentrations: 10,000, 1,000, 100, and 10 nM). After culturing for 24 hours at 37°C in a 5% CO2 incubator, 33 µL of One-glo (Promega) was added to each well. After a 5-minute incubation at room temperature, luminescence was detected using a microplate reader (EnVision, PerkinElmer).
Using the measurement data, non-linear regression analysis was performed with the SAS system (SAS Institute Inc.) to estimate IC50.

[4] = Central nervous system (CNS) penetration study in mice; format: in vivo; settings: female, BALB/cCrSlc, mouse, ip, 30 mg/kg intraperitoneally, three hours later, cerebrum and plasma by LC-MS/MS, read-out: Brain-to-plasma concentration ratio (Kp value)
Method: To evaluate the central nervous system (CNS) penetration of a test substance, a central nervous system penetration study was conducted using mice.
Six-week-old female BALB/cCrSlc mice (Japan SLC) were used. The test substance suspended in 0.5% methylcellulose was intraperitoneally administered to mice at a dose of 30 mg/kg. Three hours later, blood was collected from the abdominal vena cava under isoflurane anesthesia, and plasma was obtained by centrifugation. After exsanguination from the abdominal vena cava, the cerebrum was collected.
The drug concentrations of the collected plasma and cerebrum were measured by LC-MS/MS. To determine the brain penetration of the drug, the brain-to-plasma concentration ratio (Kp value) was calculated.

[5] = test system: SU-DHL-4 cell lines; test: Proliferation inhibition test, GCB-DLBCL cell line SU-DHL-4 (negative control line); format: cell-based; settings: Homo sapiens; SU-DHL-4 (GCB-DLBCL, NF-κB pathway-independent, negative control); 96 hours; Cell Counting Kit-8; read-out: Proliferation inhibitory activity against SU-DHL-4 IC50
Method: as §1, §2, §3, §4

Cn1cc(C(=O)c2cnn(-c3cncc4c(F)cccc34)c2C(F)(F)F)c2cc(Cl)c(-n3nccn3)nc21 [Example 6, [5-chloro-1-methyl-6-(2H-1,2,3-triazol-2-yl)-1H-pyrrolo[2,3-b]pyridin-3-yl][1-(8-fluoroisoquinolin-4-yl)-5-(trifluoromethyl)-1H-pyrazol-4-yl]methanone]
IC50 [1]: 150 nM | IC50 [2]: 13 nM | IC50 [3]: 75 nM | Kp at 3 h [4]: 0.83 | IC50 [5]: 2300 nM

CCn1cc(C(=O)c2cnn(-c3cncc4c(F)cccc34)c2C(F)(F)F)c2cc(Cl)c(-n3nccn3)nc21 [Example 7, [5-chloro-1-ethyl-6-(2H-1,2,3-triazol-2-yl)-1H-pyrrolo[2,3-b]pyridin-3-yl][1-(8-fluoroisoquinolin-4-yl)-5-(trifluoromethyl)-1H-pyrazol-4-yl]methanone]
IC50 [1]: 130 nM | IC50 [2]: 25 nM | IC50 [3]: 150 nM | Kp at 3 h [4]: 0.52 | IC50 [5]: 3200 nM

CCCn1cc(C(=O)c2cnn(-c3cncc4c(F)cccc34)c2C(F)(F)F)c2cc(Cl)c(-n3nccn3)nc21 [Example 8, [5-chloro-1-propyl-6-(2H-1,2,3-triazol-2-yl)-1H-pyrrolo[2,3-b]pyridin-3-yl][1-(8-fluoroisoquinolin-4-yl)-5-(trifluoromethyl)-1H-pyrazol-4-yl]methanone]
IC50 [1]: 110 nM | IC50 [2]: 39 nM | IC50 [3]: 280 nM | Kp at 3 h [4]: 0.52 | IC50 [5]: 2400 nM

C[C@@H]1CC(C(=O)c2cn(CCCO)c3nc(-c4ncccn4)c(Cl)cc23)C[C@@H](C)N1c1ncc(F)cc1I (stereo partly drawn) [Example 9, [5-chloro-1-(3-hydroxypropyl)-6-(pyrimidin-2-yl)-1H-pyrrolo[2,3-b]pyridin-3-yl][(2R,6R)-1-(5-fluoro-3-iodopyridin-2-yl)-2,6-dimethylpiperidin-4-yl]methanone]
IC50 [1]: 480 nM | IC50 [2]: 69 nM | IC50 [3]: 140 nM | Kp at 3 h [4]: 1.4 | IC50 [5]: 5100 nM

C[C@@H]1CC(C(=O)c2cn(C3COC3)c3nc(-c4ncccn4)c(Cl)cc23)C[C@@H](C)N1c1ncc(F)cc1I (stereo partly drawn) [Example 10, [5-chloro-1-(oxetan-3-yl)-6-(pyrimidin-2-yl)-1H-pyrrolo[2,3-b]pyridin-3-yl][(2R,6R)-1-(5-fluoro-3-iodopyridin-2-yl)-2,6-dimethylpiperidin-4-yl]methanone]
IC50 [1]: 440 nM | IC50 [2]: 67 nM | IC50 [3]: 140 nM | Kp at 3 h [4]: 1.7 | IC50 [5]: 6000 nM

C[C@@H]1CC(C(=O)c2cn(C)c3nc(-c4ncccn4)c(Cl)cc23)C[C@@H](C)N1c1ncc(F)cc1I (stereo partly drawn) [Example 11, [5-chloro-1-methyl-6-(pyrimidin-2-yl)-1H-pyrrolo[2,3-b]pyridin-3-yl][(2R,6R)-1-(5-fluoro-3-iodopyridin-2-yl)-2,6-dimethylpiperidin-4-yl]methanone]
IC50 [1]: 290 nM | IC50 [2]: 54 nM | IC50 [3]: 230 nM | Kp at 3 h [4]: 3 | IC50 [5]: 8900 nM

Cn1cc(C(=O)c2cnn(-c3cncc4c(F)cccc34)c2C(F)(F)F)c2cc(Cl)c(-c3ncccn3)nc21 [Example 12, [5-chloro-1-methyl-6-(pyrimidin-2-yl)-1H-pyrrolo[2,3-b]pyridin-3-yl][1-(8-fluoroisoquinolin-4-yl)-5-(trifluoromethyl)-1H-pyrazol-4-yl]methanone]
IC50 [1]: 210 nM | IC50 [2]: 11 nM | IC50 [3]: 85 nM | Kp at 3 h [4]: 0.66 | IC50 [5]: 1900 nM

CCn1cc(C(=O)C2C[C@@H](C)N(c3ncc(F)cc3I)[C@H](C)C2)c2cc(Cl)c(-n3nccn3)nc21 (stereo partly drawn) [Example 14, [5-chloro-1-ethyl-6-(2H-1,2,3-triazol-2-yl)-1H-pyrrolo[2,3-b]pyridin-3-yl][(2R,6R)-1-(5-fluoro-3-iodopyridin-2-yl)-2,6-dimethylpiperidin-4-yl]methanone]
IC50 [1]: 470 nM | IC50 [2]: 58 nM | IC50 [3]: 70 nM | Kp at 3 h [4]: 0.74 | IC50 [5]: 8500 nM

CC(C)n1cc(C(=O)C2C[C@@H](C)N(c3ncc(F)cc3I)[C@H](C)C2)c2cc(Cl)c(-n3nccn3)nc21 (stereo partly drawn) [Example 17, [5-chloro-1-isopropyl-6-(2H-1,2,3-triazol-2-yl)-1H-pyrrolo[2,3-b]pyridin-3-yl][(2R,6R)-1-(5-fluoro-3-iodopyridin-2-yl)-2,6-dimethylpiperidin-4-yl]methanone]
IC50 [1]: 690 nM | IC50 [2]: 160 nM | IC50 [3]: 300 nM | Kp at 3 h [4]: 0.26 | IC50 [5]: 6700 nM

CCn1cc(C(=O)C2C[C@@H](C)N(c3ncc(F)cc3I)[C@H](C)C2)c2cc(Cl)c(-c3ncccn3)nc21 (stereo partly drawn) [Example 18, [5-chloro-1-ethyl-6-(pyrimidin-2-yl)-1H-pyrrolo[2,3-b]pyridin-3-yl][(2R,6R)-1-(5-fluoro-3-iodopyridin-2-yl)-2,6-dimethylpiperidin-4-yl]methanone]
IC50 [1]: 480 nM | IC50 [2]: 65 nM | IC50 [3]: 100 nM | Kp at 3 h [4]: 0.63 | IC50 [5]: 6700 nM
